“Also recorded” adds a separate entry of the source.
Legend:
Assay type in all cases: cell-based
[1] = tested on: standard bacterial inoculum; experiment: Preservation of coating composition A, repeated bacterial inoculation, streak evaluation
Description: Biocide compositions according to the invention were incorporated into a coating composition A that is used for coating building facades. This coating composition is a plaster based on an aqueous polymer dispersion commercially available under the designation “Granol KR 3.0” (company Steinwerke Kupferdreh GmbH). The addition of the biocide composition of the invention served to preserve the coating composition before its use, i.e., while it was stored in its packing drums.
(§1) The biocides shown in Table XI below were added respectively to 50 g of coating composition A. The stated amounts of biocide refer to the amount of coating composition A. In the MIT/BIT mixtures, the two biocides were present in a weight ratio of 1:1.
(§2) Apart from a blank test without addition of biocide, 1 mL of a standard bacterial inoculum that contained the following bacterial strains was added to each sample of coating composition A:
(§3) The cell density of the inoculum was 10^10 to 3·10^10 cells/mL, and the cell density of the samples was 2·10^8 to 6·10^8 cells/g. The samples were held at 30° C. for 7 days. Then a streak of each sample was produced on a nutrient agar plate, held at 30° C. for 48 h, and then evaluated for bacterial growth. The following evaluation scale was used:
(§4) When the bacterial growth was evaluated as below 6, a second bacterial inoculum of the above-mentioned type was added to the corresponding original 50 g sample and it was again held at 30° C. for 7 days. Then a streak was again produced on a nutrient agar plate, which was again evaluated for its bacterial growth after a holding time of 48 h at 30° C.
(§5) When the bacterial growth of the streak was evaluated as 6 for a sample, the testing of this sample was terminated. As long as a sample had not reached this number, a bacterial inoculum was again added in the above-mentioned manner and the sample was held and tested by means of a streak. This procedure was repeated as necessary, with a maximum of 4 bacterial inocula being added per sample.

[2] = tested on: standard bacterial inoculum; experiment: Preservation of coating composition B, repeated bacterial inoculation, streak evaluation
Description: as §1, §2, §3, §4, §5
Example 9 was repeated, but using coating composition B instead of coating composition A.
Coating composition B is a particularly low-emission plaster based on a polymer dispersion commercially available under the designation “Granol KR 3.0 LF” (company Steinwerke Kupferdreh GmbH).

Pseudomonas aeruginosa = experiment: MIC and synergy of MIT and BIT in Müller-Hinton broth, 48 h; details: for growth of the microorganism: MIT ppm = row head c0; on growth of the microorganism: key: growth of the microorganism took place (symbol '+'); or not (symbol '−')
Description: (§6) The synergy index is calculated according to the method of F. C. Kull et al., Applied Microbiology, Vol. 9 (1961), p. 538. Here the synergy index is calculated using the following formula:
(§7) Synergy index SI=Qa/QA+Qb/QB.
The synergy of the two active substances MIT and BIT against the microorganism Pseudomonas aeruginosa is shown as in Example 1.
The test batches again contained a Müller-Hinton broth as a nutrient medium. The cell density was 10^6 cells/mL. The incubation time was 48 h at 25° C. Each sample was incubated on an incubation shaker at 120 rpm.

Aspergillus niger = experiment: MIC and synergy of MIT and BIT in Sabouraud maltose broth, 96 h; details: for growth of the microorganism: MIT ppm = row head c0; on growth of the microorganism: key: growth of the microorganism took place (symbol '+'); or not (symbol '−')
Description: as §6, §7
The synergy of the two active substances MIT and BIT against the microorganism Aspergillus niger is shown as in Example 1.
(§8) The test batches contained a Sabouraud maltose broth as a nutrient medium. The spore concentration was 10^6 per mL. The incubation time was 96 h at 25° C. Each sample was incubated on an incubation shaker at 120 rpm.

Klebsiella pneumoniae = experiment: MIC and synergy of MIT and BIT in Müller-Hinton broth, 72 h; details: for growth of the microorganism: MIT ppm = row head c0; on growth of the microorganism: key: growth of the microorganism took place (symbol '+'); or not (symbol '−')
Description: as §6, §7
The synergy of the two active substances MIT and BIT against the microorganism Klebsiella pneumoniae is shown as in example 1.
The test batches again contained a Müller-Hinton broth as a nutrient medium. The cell density was 10^6 cells/mL. The incubation time was 72 h at 25° C. Each sample was incubated on an incubation shaker at 120 rpm.

Penicillium funiculosum = experiment: MIC and synergy of MIT and BIT in Sabouraud maltose broth, 96 h; details: for growth of the microorganism: MIT ppm = row head c0; on growth of the microorganism: key: growth of the microorganism took place (symbol '+'); or not (symbol '−')
Description: as §6, §7
The synergy of the two active substances MIT and BIT against the microorganism Penicillium funiculosum is shown as in Example 1.
as §8

[3] = share of the BIT/MIT mixture at MIC, 96 h

O=c1[nH]sc2ccccc12 [BIT, 1,2-benzisothiazolin-3-one]
Bacterial growth (7 days + 48 h after 4th inoculation) ([1]; biocide 0.005% by wt): full bacterial growth was reached already after the first inoculation; also recorded: (Growth already after 1st inoculation)
Bacterial growth (7 days + 48 h after 4th inoculation) ([1]; biocide 0.01% by wt): (Growth already after 1st inoculation)
Bacterial growth (7 days + 48 h after 4th inoculation) ([1]; biocide 0.015% by wt): after the second inoculation; also recorded: (Growth already after 2nd inoculation)
Bacterial growth (7 days + 48 h after 4th inoculation) ([1]; biocide 0.02% by wt): (Growth already after 2nd inoculation)
Bacterial growth (7 days + 48 h after 4th inoculation) ([1]; biocide 0.03% by wt): after the third inoculation; also recorded: (Growth already after 3rd inoculation)
bacterial attack ([2]; all tested concentrations 0.005-0.03% by wt): complete bacterial attack could be observed after the third inoculation at the latest
Bacterial growth (7 days + 48 h after 4th inoculation) ([2]; biocide 0.005% by wt): (Growth already after 1st inoculation)
Bacterial growth (7 days + 48 h after 4th inoculation) ([2]; biocide 0.01% by wt): (Growth already after #^st inoculation)
Bacterial growth (7 days + 48 h after 4th inoculation) ([2]; biocide 0.015% by wt): (Growth already after 2nd inoculation)
Bacterial growth (7 days + 48 h after 4th inoculation) ([2]; biocide 0.02% by wt): (Growth already after 2nd inoculation)
Bacterial growth (7 days + 48 h after 4th inoculation) ([2]; biocide 0.03% by wt): (Growth already after 3rd inoculation)
MIC at Total concentration BIT + MIT Qa + Qb (Pseudomonas aeruginosa; 48 h): 150 ppm
Qa/QA (Pseudomonas aeruginosa; 48 h): 1.00
Synergy index Qa/QA + Qb/QB (Pseudomonas aeruginosa; 48 h): 1.00
growth of the microorganism (Pseudomonas aeruginosa; BIT 5 ppm, 48 h): +
growth of the microorganism (Pseudomonas aeruginosa; BIT 10 ppm, 48 h): +
growth of the microorganism (Pseudomonas aeruginosa; BIT 25 ppm, 48 h): +
growth of the microorganism (Pseudomonas aeruginosa; BIT 50 ppm, 48 h): +
growth of the microorganism (Pseudomonas aeruginosa; BIT 75 ppm, 48 h): +
growth of the microorganism (Pseudomonas aeruginosa; BIT 100 ppm, 48 h): +
growth of the microorganism (Pseudomonas aeruginosa; BIT 125 ppm, 48 h): +
growth of the microorganism (Pseudomonas aeruginosa; BIT 150 ppm, 48 h): −
growth of the microorganism (Pseudomonas aeruginosa; BIT 175 ppm, 48 h): −
growth of the microorganism (Pseudomonas aeruginosa; BIT 200 ppm, 48 h): −
MIC at BIT concentration Qa (Pseudomonas aeruginosa; BIT share of the BIT/MIT mixture at MIC, 48 h): 150 ppm
MIC value (Pseudomonas aeruginosa; used alone, 48 h at 25° C.): 150 ppm
MIC at Total concentration BIT + MIT Qa + Qb (Aspergillus niger; 96 h): 750 ppm
Qa/QA (Aspergillus niger; 96 h): 1.00
Synergy index Qa/QA + Qb/QB (Aspergillus niger; 96 h): 1.00
growth of the microorganism (Aspergillus niger; BIT 5 ppm, 96 h): +
growth of the microorganism (Aspergillus niger; BIT 10 ppm, 96 h): +
growth of the microorganism (Aspergillus niger; BIT 25 ppm, 96 h): +
growth of the microorganism (Aspergillus niger; BIT 50 ppm, 96 h): +
growth of the microorganism (Aspergillus niger; BIT 75 ppm, 96 h): +
growth of the microorganism (Aspergillus niger; BIT 100 ppm, 96 h): −
growth of the microorganism (Aspergillus niger; BIT 150 ppm, 96 h): −
MIC at BIT concentration Qa (Aspergillus niger; [3]): 750 ppm
MIC value (Aspergillus niger; used alone, 96 h at 25° C.): 100 ppm
MIC at Total concentration BIT + MIT Qa + Qb (Klebsiella pneumoniae; 72 h): 25 ppm
Qa/QA (Klebsiella pneumoniae; 72 h): 1.00
Synergy index Qa/QA + Qb/QB (Klebsiella pneumoniae; 72 h): 1.00
growth of the microorganism (Klebsiella pneumoniae; BIT 1 ppm, 72 h): +
growth of the microorganism (Klebsiella pneumoniae; BIT 2.5 ppm, 72 h): +
growth of the microorganism (Klebsiella pneumoniae; BIT 5 ppm, 72 h): +
growth of the microorganism (Klebsiella pneumoniae; BIT 7.5 ppm, 72 h): +
growth of the microorganism (Klebsiella pneumoniae; BIT 10 ppm, 72 h): +
growth of the microorganism (Klebsiella pneumoniae; BIT 15 ppm, 72 h): +
growth of the microorganism (Klebsiella pneumoniae; BIT 20 ppm, 72 h): +
growth of the microorganism (Klebsiella pneumoniae; BIT 25 ppm, 72 h): −
growth of the microorganism (Klebsiella pneumoniae; BIT 30 ppm, 72 h): −
growth of the microorganism (Klebsiella pneumoniae; BIT 35 ppm, 72 h): −
MIC at BIT concentration Qa (Klebsiella pneumoniae; BIT share of the BIT/MIT mixture at MIC, 72 h): 25 ppm
MIC value (Klebsiella pneumoniae; used alone, 72 h at 25° C.): 25 ppm
MIC at Total concentration BIT + MIT Qa + Qb (Penicillium funiculosum; 96 h): 200 ppm
Qa/QA (Penicillium funiculosum; 96 h): 1.00
Synergy index Qa/QA + Qb/QB (Penicillium funiculosum; 96 h): 1.00
growth of the microorganism (Penicillium funiculosum; BIT 10 ppm, 96 h): +
growth of the microorganism (Penicillium funiculosum; BIT 15 ppm, 96 h): +
growth of the microorganism (Penicillium funiculosum; BIT 20 ppm, 96 h): +
growth of the microorganism (Penicillium funiculosum; BIT 30 ppm, 96 h): +
growth of the microorganism (Penicillium funiculosum; BIT 40 ppm, 96 h): −
growth of the microorganism (Penicillium funiculosum; BIT 50 ppm, 96 h): −
growth of the microorganism (Penicillium funiculosum; BIT 75 ppm, 96 h): −
MIC at BIT concentration Qa (Penicillium funiculosum; [3]): 200 ppm
MIC value (Penicillium funiculosum; used alone, 96 h at 25° C.): 40 ppm
